Assay results from US7521478B2, “Total synthesis of myriaporones” (Pharma Mar, S.A.U., priority 2002, dated 2009).

Columns and labels:
Assay type in all cases: cell-based
HeLa-APL = experiment: Inhibition of cell growth by colorimetric SRB assay, HELA-APL; conditions: Homo sapiens
Method in brief: (§1)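 Absorbance of solubilized bound SRB (490 nm) quantified cell growth and viability after cells were exposed to compound for 48 h. Seeding was 5×10^3 cells per well in RPMI 1640/10% FBS, with 18 h attachment beforehand. GI, TGI and LC were calculated from means of triplicate wells.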

SK-MEL-28 = experiment: Inhibition of cell growth by colorimetric SRB assay, MEL-28; conditions: Homo sapiens, SK-MEL-28, MEL-28, 48 hours exposure
Method in brief: as §1

HeLa = experiment: Inhibition of cell growth by colorimetric SRB assay, HELA; conditions: Homo sapiens, HELA, 48 hours exposure
Method in brief: as §1

A-549 = experiment: Inhibition of cell growth by colorimetric SRB assay, A-549; conditions: Homo sapiens, A549, A-549, 48 hours exposure
Method in brief: as §1

SK-BR-3 = experiment: Inhibition of cell growth by colorimetric SRB assay, SK-BR-3; conditions: SK-BR-3, 48 hours exposure
Method in brief: as §1

DU-145 = experiment: Inhibition of cell growth by colorimetric SRB assay, DU-145; conditions: Homo sapiens, DU-145, 48 hours exposure
Method in brief: as §1

IGROV = experiment: Inhibition of cell growth by colorimetric SRB assay, IGROV; conditions: Homo sapiens, 48 hours exposure
Method in brief: as §1

IGROV-ET = experiment: Inhibition of cell growth by colorimetric SRB assay, IGROV-ET; conditions: Homo sapiens, IGROV-ET, 48 hours exposure
Method in brief: as §1

K-562 = experiment: Inhibition of cell growth by colorimetric SRB assay, K-562; conditions: Homo sapiens, K562, K-562, 48 hours exposure
Text: (§2) The finality of these assays is to interrupt the growth of a “in vitro” tumor cell culture by means a continued exhibition of the cells to the sample to be testing.
(§3) Inhibition of Cell Growth by Colorimetric Assay.
(§4) A colorimetric type of assay, using sulforhodamine B (SRB) reaction has been adapted for a quantitative measurement of cell growth and viability (following the technique described by P. A. Skehan, et al., J. Natl. CancerInst. 1990, 82, 1107-1112).
(§5) This form of assay employs 96 well cell culture microplates of 9 mm diameter (T. Mosmann et al., J. of Immuological Methods 1983, 65, 55-63; G. T. Faircloth et al., J. of Tissue and Culture Methods 1988, 11, 201-205). Most of the cell lines are obtained from American Type Culture Collection (ATCC) derived from different human cancer types.
(§6) Cells are maintained in RPMI 1640 10% FBS, supplemented with 0.1 g/L penicillin and 0.1 g/L streptomycin sulfate and then incubated at 37° C., 5% CO2 and 98% humidity. For the experiments, cells were harvested from subconfluent cultures using trypsin and resuspended in fresh medium before plating.
(§7) Cells are seeded in 96 well microtiter plates, at 5×10^3 cells per well in aliquots of 195 μL medium, and they are allowed to attach to the plate surface by growing in drug free medium for 18 hours. Afterward, samples are added in aliquots of 5 μL in a ranging from 10 to 10^−8 μg/mL, dissolved in DMSO/EtOH/PBS (0.5:0.5:99). After 48 hours exposure, the antitumor effect are measured by the SRB methodology: cells are fixed by adding 50 μL of cold 50% (wt/vol) trichloroacetic acid (TCA) and incubated for 60 minutes at 4° C. Plates are washed with deionizer water and dried. One hundred μl of SRB solution (0.4% wt/vol in 1% acetic acid) is added to each microliter well and incubated for 10 minutes at room temperature. Unbound SRB is removed by washing with 1% acetic acid. Plates are air dried and bound stain is solubilized with Tris buffer. Optical densities are read on a automated spectrophotometric plate reader at a single wavelength of 490 nm.
(§8) The values for mean +/−SD of data from triplicate wells are calculated. Some parameters for cellular responses can be calculated: GI=growth inhibition, TGI=total growth inhibition (cytostatic effect) and LC=cell killing (cytotoxic effect).

LNCaP = experiment: Inhibition of cell growth by colorimetric SRB assay, LN-caP; conditions: Homo sapiens, LN-caP, 48 hours exposure
Text: as §2, §3, §4, §5, §6, §7, §8

PANC-1 = experiment: Inhibition of cell growth by colorimetric SRB assay, PANC-1; conditions: Homo sapiens, PANC-1, 48 hours exposure
Method in brief: as §1

LoVo-Dox = experiment: Inhibition of cell growth by colorimetric SRB assay, LOVO-DOX; conditions: Homo sapiens, LOVO-DOX, 48 hours exposure
Method in brief: as §1

LoVo = experiment: Inhibition of cell growth by colorimetric SRB assay, LOVO; conditions: Homo sapiens, LOVO, 48 hours exposure
Method in brief: as §1

HT-29 = experiment: Inhibition of cell growth by colorimetric SRB assay, HT-29; conditions: Homo sapiens, HT-29, 48 hours exposure
Method in brief: as §1

[1] = cell killing, read-out: LC50 (the source's name)
[2] = total growth inhibition, read-out: TGI

SMILES: C/C=C\[C@H](C)[C@H]1OC1(C)[C@@H](O[Si](C)(C)C(C)(C)C)[C@@H](CO)C(=O)[C@H](CO)[C@@H](O)CC(=O)CC (some centres unmarked) [20a + 20c]
- GI50 (HeLa-APL; 48 h): 12.9 µM
- CC50 (HeLa-APL; HELA-APL, 48 hours exposure, cell killing, read-out: LC50 (the source's name)): ≥ 20.5 µM
- GI50 (SK-MEL-28): 16.3 µM
- CC50 (SK-MEL-28; [1]): ≥ 20.5 µM
- IC (total growth inhibition) (SK-MEL-28; [2]): 20.5 µM
- GI50 (HeLa): 13.3 µM
- CC50 (HeLa; [1]): ≥ 20.5 µM
- IC (total growth inhibition) (HeLa; [2]): 20.5 µM
- GI50 (A-549): ≥ 20.5 µM
- CC50 (A-549; [1]): ≥ 20.5 µM
- IC (total growth inhibition) (A-549; [2]): 20.5 µM
- GI50 (SK-BR-3; Homo sapiens): 11.1 µM
- CC50 (SK-BR-3; Homo sapiens, cell killing, read-out: LC50 (the source's name)): ≥ 20.5 µM
- TGI (SK-BR-3; total growth inhibition): 2.05E−05 Molar
- GI50 (DU-145): 10.7 µM
- CC50 (DU-145; [1]): ≥ 20.5 µM
- IC (total growth inhibition) (DU-145; [2]): 20.5 µM
- GI50 (IGROV): 14.1 µM
- CC50 (IGROV; [1]): ≥ 20.5 µM
- IC (total growth inhibition) (IGROV; [2]): 20.5 µM
- GI50 (IGROV-ET): 13.8 µM
- CC50 (IGROV-ET; [1]): ≥ 20.5 µM
- IC (total growth inhibition) (IGROV-ET; [2]): 20.5 µM
- GI50 (K-562): 7.75 µM
- CC50 (K-562; [1]): ≥ 20.5 µM
- IC (total growth inhibition) (K-562; [2]): 20.5 µM
- GI50 (LNCaP): 8.42 µM
- CC50 (LNCaP; [1]): ≥ 20.5 µM
- IC (total growth inhibition) (LNCaP; [2]): 20.5 µM
- GI50 (PANC-1): 14 µM
- CC50 (PANC-1; [1]): ≥ 20.5 µM
- IC (total growth inhibition) (PANC-1; [2]): 20.5 µM
- GI50 (LoVo-Dox): 85.1 µM
- LC50 (concentration for 50% cell killing) (LoVo-Dox; cell killing, read-out: LC50): ≥ 20.5 µM
- IC (total growth inhibition) (LoVo-Dox; [2]): 20.5 µM
- GI50 (LoVo): 10.4 µM
- LC50 (LoVo; cell killing, read-out: LC50): ≥ 20.5 µM
- IC (total growth inhibition) (LoVo; [2]): 20.5 µM
- GI50 (HT-29): 17.1 µM
- CC50 (HT-29; [1]): ≥ 20.5 µM
- IC (total growth inhibition) (HT-29; [2]): 20.5 µM
